Results published in patent publication US20140349989A1, “COMPOUNDS AND THERAPEUTIC USES THEREOF” (Alzheimer's Institute of America, priority 2011, published 2014).

Experiment: Cytotoxicity Assay (HCT116, CellTiter-Glo)
Assay type: cell-based
Conditions: human, HCT116 cell cytotoxicity IC50
Method: HCT116 cells were seeded in 96 well plates (Greiner Bio-One, Monroe, N.C.) and allowed to settle overnight. Test compound dissolved in dimethyl sulfoxide (DMSO) was added and drug incubation proceeded for 72 hours. When applicable, a 1000× solution of nicotinic acid (NA; Sigma-Aldrich, St. Louis, Mo.) dissolved in water was generated, and 1×NA (10 μM final concentration) was added at the same time as the test compound. After 72 hour, 50 μL of CellTiter-Glo Luminescent Cell Viability Assay reagent (Promega Corporation, Madison, Wis.) was added to cells in 200 μL of cellular media. After a proscribed incubation period, luminescence was measured using a TopCount NXT plate reader (PerkinElmer, Waltham, Mass.).

SMILES | IC50 at 72 h [nM]
Cc1c(-c2ccccc2)c(C(=O)NCCCN2CCCCC2)nn1-c1ccc(NC(=O)NCc2cccnc2)cc1 [Compound 50, 5-Methyl-4-phenyl-N-[3-(piperidin-1-yl)propyl]-1-(4-{[(pyridin-3-ylmethyl)carbamoyl]ami-no}phenyl)-1H-pyrazole-3-carboxamide] | < 100
Nc1nn(-c2ccc(NC(=O)NCc3cccnc3)cc2)c2ccccc12 [Compound 44, 1-[4-(3-aminoindazol-1-yl)phenyl]-3-(3-pyridylmethyl)urea] | ≥ 100
O=C(NCc1cccnc1)Nc1ccc(-n2cc(C3CCN(CC(F)(F)F)CC3)c3ccccc32)cc1 [Compound 82, 1-(Pyridin-3-ylmethyl)-3-(4-{3-[1-(2,2,2-trifluoroethyl)piperidin-4-yl]-1H-indol-1-yl}phenyl)urea] | < 100
CCOC(=O)c1c(C)n(-c2ccc(NC(=O)NCc3cccnc3)cc2)c2ccccc12 [Compound 79, Ethyl 2-methyl-1-(4-{[(pyridin-3-ylmethyl)carbamoyl]amino}phenyl)-1H-indole-3-carboxylate] | ≥ 100
CCOCCOCCN1CCC2(CC1)CN(c1ccc(NC(=O)NCc3cccnc3)cc1)c1ccccc12 [Compound 126, 1-(4-{1′-[2-(2-Ethoxy-ethoxy)ethyl]spiro[indole-3,4′-piperidin]-1(2H)-yl}phenyl)-3-(pyridin-3-ylmethyl)urea] | ≥ 100
CC(C)(C)OC(=O)N1CCC(n2cc(C#CCCCNC(=O)NCc3cccnc3)c3ccccc32)CC1 [Compound 41, tert-Butyl 4-[3-(5-{[(pyridin-3-ylmethyl)carbamoyl]ami-no}pent-1-yn-1-yl)-1H-indol-1-yl]piperidine-1-carboxylate] | ≥ 100
O=C(NCc1cccnc1)Nc1ccc(N2CC3(CCNCC3)c3ccccc32)cc1 [Compound 80, 1-(Pyridin-3-ylmethyl)-3-[4-(spiro[indole-3,4′-piperidin]-1(2H)-yl)phenyl]urea] | < 100

Same assay, conditions: human, HCT116 cells, 72 hours drug incubation, CellTiter-Glo luminescence; read-out: HCT116 cell cytotoxicity IC50

SMILES | IC50 at 72 h [nM]
O=C(NCc1cccnc1)Nc1ccc(-n2cc(C(=O)N3CCC(N4CCC(F)(F)CC4)CC3)c3ccccc32)c(Cl)c1 [Compound 107, 1-(3-Chloro-4-{3-[(4,4-difluoro-1,4′-bipiperidin-1′-yl)carbonyl]-1H-indol-1-yl}phenyl)-3-(pyridin-3-ylmethyl)urea] | < 100
O=C(/C=C/c1ccc(-n2nc(C(=O)N3CCN(C4CCC4)CC3)c3ccccc32)cc1)NCc1cccnc1 [Compound 167, (2E)-3-(4-{3-[(4-Cyclobutylpiperazin-1-yl)carbonyl]-1H-indazol-1-yl}phenyl)-N-(pyridin-3-ylmethyl)prop-2-enamide] | < 100
O=C(NCCCCCn1cc(C(=O)N2CCC(N3CCCCC3)CC2)c2ccccc21)NCc1cccnc1 [Compound 31, 1-{5-[3-(1,4′-Bipiperidin-1′-yl-carbonyl)-1H-indol-1-yl]pentyl}-3-(pyridin-3-ylmethyl)urea] | < 100
CC1CCCN1CCc1cn(-c2ccc(/C=C/C(=O)NCc3cccnc3)cc2)c2ccccc12 (stereo not drawn) [Compound 161, (2E)-3-(4-{3-[2-(2-Methylpyrrolidin-1-yl)ethyl]-1H-indol-1-yl)phenyl)-N-(pyridin-3-ylmethyl)prop-2-enamide] | < 100
Cc1c(C(=O)N2CCC(N3CCC(F)(F)CC3)CC2)c2ccccc2n1-c1ccc(NC(=O)NCc2cccnc2)cc1 [Compound 77, 1-(4-{3-[(4,4-Difluoro-1,4′-bipiperidin-1′-yl)carbonyl]-2-methyl-1H-indol-1-yl}phenyl)-3-(pyridin-3-ylmethyl)urea] | < 100
CN1CCN(C2CCN(C(=O)c3cn(CCCCCNC(=O)NCc4cccnc4)c4ccccc34)CC2)CC1 [Compound 64, 1-[5-(3-{[4-(4-Methylpiperazin-1-yl)piperidin-1-yl]carbonyl}-1H-indol-1-yl)pentyl]-3-(pyridin-3-ylmethyl) urea] | < 100
O=C(NCc1cccnc1)Nc1ccc(-n2cc(-c3nccn3CCN3CCCCC3)c3ccccc32)cc1 [Compound 52, 1-[4-(3-{1-[2-(Piperidin-1-yl)ethyl]-1H-imidazol-2-yl}-1H-indol-1-yl)phenyl]-3-(pyridin-3-ylmethyl)urea] | < 100
O=C(NCc1cccnc1)Nc1ccc(-c2nn(CCN3CCCCC3)c3ccccc23)cc1 [Compound 75, 1-[4-[1-[2-(1-piperidyl)ethyl]indazol-3-yl]phenyl]-3-(3-pyridylmethyl)urea] | < 100
CN1CCC(c2cn(-c3ccc(NC(=O)NCc4cccnc4)cc3)c3ccccc23)CC1 [Compound 111, 1-{4-[3-(1-Methylpiperidin-4-yl)-1H-indol-1-yl]phenyl}-3-(pyridin-3-ylmethyl)urea] | < 100
O=C(NCc1cccnc1)Nc1ccc(-c2nn(C3CNC3)c3ccccc23)cc1 [Compound 91, 1-{4-[1-(Azetidin-3-yl)-1H-indazol-3-yl]phenyl}-3-(pyridin-3-ylmethyl) urea] | < 100
O=C(NCc1cccnc1)Nc1ccc2c(c1)c(C(=O)NCCCN1CCCCC1)cn2Cc1ccccc1 [Compound 96, 1-Benzyl-N-[3-(piperidin-1-yl)propyl]-5-{[(pyridin-3-yl-methyl)carbamoyl]amino}-1H-indole-3-carboxamide] | ≥ 100
O=C(NCc1cccnc1)Nc1ccc(-n2cc(C3CCN(C4COC4)CC3)c3ccccc32)cc1 [Compound 105, 1-(4-{3-[1-(Oxetan-3-yl)piperidin-4-yl]-1H-indol-1-yl}phenyl)-3-(pyridin-3-ylmethyl)urea] | < 100
O=C(NCc1cccnc1)Nc1ccc(-n2cc(C3CCN(CCF)CC3)c3ccccc32)cc1 [Compound 99, 1-(4-{3-[1-(2-Fluoroethyl)piperidin-4-yl]-1H-indol-1-yl}phenyl)-3-(pyridin-3-ylmethyl)urea] | < 100
O=C(/C=C/c1ccc(-n2nc(C(=O)N3CCC(N4CCOCC4)C3)c3ccccc32)cc1)NCc1cccnc1 (stereo not drawn) [Compound 170, (2E)-3-[4-(3-{[3-(Morpholin-4-yl)pyrrolidin-1-yl]carbonyl}-1H-indazol-1-yl)phenyl]-N-(pyridin-3-ylmethyl)prop-2-enamide] | < 100
O=C(NCc1cccnc1)Nc1ccc(N2CC3(CCN(C4CCCC4)CC3)c3ccccc32)cc1 [Compound 117, 1-[4-(1′-Cyclo-pentylspiro[indole-3,4′-piperidin]-1(2H)-yl)phenyl]-3-(pyridin-3-ylmethyl)urea] | < 100
O=C(NCc1cccnc1)Nc1ccc(-n2cc(C3CCN(CC(F)F)CC3)c3ccccc32)cc1 [Compound 40, 1-(4-{3-[1-(2,2-Difluoroethyl)piperidin-4-yl]-1H-indol-1-yl}phenyl)-3-(pyridin-3-ylmethyl)urea] | < 100
O=C(NCc1cccnc1)Nc1ccc2c(C(=O)N3CCC(N4CCCCC4)CC3)cn(Cc3ccccc3)c2c1 [Compound 68, 1-[1-Benzyl-3-(1,4′-bipiperidin-1′-yl-carbonyl)-1H-indol-6-yl]-3-(pyridin-3-ylmethyl)urea] | ≥ 100
Cc1c(C(=O)N2CCN(C3CCCCC3)CC2)c2ccccc2n1-c1ccc(NC(=O)NCc2cccnc2)cc1 [Compound 104, 1-(4-{3-[(4-Cyclohexyl-piperazin-1-yl)carbonyl]-2-methyl-1H-indol-1-yl}phenyl)-3-(pyridin-3-ylmethyl)urea] | < 100
CCN(CC)CCc1cn(-c2ccc(/C=C/C(=O)NCc3cccnc3)cc2)c2ccccc12 [Compound 162, (2E)-3-(4-{3-[2-(Diethylamio)ethyl]-1H-indol-1-yl}phenyl)-N-(pyridin-3-ylmethyl)prop-2-enamide] | < 100
Cc1c(C(=O)N2CCN(C3CCC(F)(F)CC3)CC2)c2ccccc2n1-c1ccc(NC(=O)NCc2cccnc2)cc1 [Compound 93, 1-[4-(3-{[4-(4,4-Difluoro-cyclohexyl)pipe-razin-1-yl]carbonyl}-2-methyl-1H-indol-1-yl)phenyl]-3-(pyridin-3-ylmethyl)urea] | < 100
O=C(NCc1cccnc1)Nc1ccc(-n2nc(N3CCN(C4COC4)CC3)c3ccccc32)cc1 [Compound 114, 1-(4-{3-[4-(Oxetan-3-yl)piperazin-1-yl]-1H-indazol-1-yl}phenyl)-3-(pyridin-3-ylmethyl)urea] | < 100
O=C(NCc1cccnc1)Nc1ccc(-n2cc(-c3ccccc3OCCCN3CCOCC3)cn2)cc1 [Compound 30, 1-[4-(4-{2-[3-(Morpholin-4-yl)propoxy]phenyl}-1H-pyrazol-1-yl)phenyl]-3-(pyridin-3-ylmethyl)urea] | < 100
C[C@H](O)C(=O)N1CCC2(CC1)CN(c1ccc(NC(=O)NCc3cccnc3)cc1)c1ccccc12 [Compound 71, 1-(4-{1′-[(2S)-2-Hydroxypropanoyl]spiro[indole-3,4′-piperidin]-1(2H)-yl}phenyl)-3-(pyridin-3-ylmethyl) urea] | < 100
CCN1CCN(C(=O)c2cn(CCCCCNC(=O)NCc3cncs3)c3ccccc23)CC1 [Compound 113, 1-(5-{3-[(4-Ethylpiperazin-1-yl)carbonyl]-1H-indol-1-yl}pentyl)-3-(1,3-thiazol-5-ylmethyl) urea] | < 100
O=C(NCc1cccnc1)Nc1ccc(N2CC3(CCN(C(=O)OCc4ccccc4)CC3)c3ccccc32)cc1 [Compound 66, Benzyl 1-(4-{[(pyridin-3-ylmethyl)carbamoyl]ami-no}phenyl)-1,2-dihydro-1′H-spiro[indole-3,4′-piperidine]-1′-carboxyylate] | < 100
O=C(NCCCCCn1cc(C(=O)N2CCC(N3CCC(F)(F)CC3)CC2)c2ccccc21)NCc1cccnc1 [Compound 32, 1-(5-{3-[(4,4-Difluoro-1,4′-bipiperidin-1′-yl)carbonyl]-1H-indol-1-yl}pentyl)-3-(pyridin-3-ylmethyl)urea] | < 100
